Measurements reported in patent publication US11753410B2, “Hormone receptor modulators for treating metabolic mutagenic and fibrotic conditions and disorders” (priority 2017, dated 2023).

Assays:
[1] = target: T1, ligand binding domain of human FXR (Homo sapiens, UniProt Q96RI1); assay: biochemical; conditions: for Emax: extent of activation relative to GW4064, read-out: Ligand Binding % Efficacy; for EC50: −log EC50, concentration required to produce 50% activation, FRET 520 nm/495 nm, 1 hour at room temperature, read-out: Ligand Binding pEC50 (converted)
T1 construct: purchased Thermofisher (LanthaScreen) PV4833
T1 sequence (Q96RI1 262-486 limits assumed): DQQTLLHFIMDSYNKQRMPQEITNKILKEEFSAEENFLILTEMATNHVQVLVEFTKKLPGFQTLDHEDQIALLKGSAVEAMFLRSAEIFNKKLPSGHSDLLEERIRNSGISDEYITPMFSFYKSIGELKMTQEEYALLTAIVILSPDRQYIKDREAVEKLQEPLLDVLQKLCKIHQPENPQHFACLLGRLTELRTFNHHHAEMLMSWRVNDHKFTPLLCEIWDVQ

[2] = target: T2, human Farnesoid X receptor ligand-binding domain/Gal4 DNA binding domain chimera (Homo sapiens, UniProt Q96RI1); assay: Cell-based assay of FXR activation (FXR-UAS-bla HEK 293T beta-lactamase reporter); conditions: for Emax: HEK-293T, read-out: Cellular % Efficacy
T2 construct: host or cells: FXR-UAS-bla HEK 293T (CellSensor UAS-bla HEK 293T)
T2 sequence (Q96RI1 262-486 limits assumed): T1 sequence (Q96RI1 262-486 limits assumed)
Experimental: FXR activation was measured using a cell line and procedure obtained from Life Technologies (Cat #K1691). […] Activation of FXR by bound ligands results in transcriptional activation of the beta-lactamase reporter gene, which is detected via assay of beta-lactamase activity.
Cells are harvested and diluted into assay medium containing phenol red-free DMEM supplemented with 2% Charcoal-stripped FBS, pyruvate, non-essential amino acids. Cells are then transferred to a 384 well assay plate. Test compounds are dissolved in DMSO and a 3-fold serial dilution series is generated, then further diluted into assay medium. Compounds in assay medium are added to cells in the 384 well plate and allowed to incubate 16 h at 37 C in the presence of 5% CO2.
A FRET-based […] (CCF4) is loaded into cells as its acetomethoxy ester. Intracellular esterases liberate free CCF4, a cephalosporin core linking 7-hydroxycoumarin to fluorescein. In the presence of beta-lactamase activity produced in the presence of FXR agonists, cleavage of CCF4 spatially separates the two dyes and disrupts FRET, so that exciting the coumarin at 409 nm now produces a blue fluorescence signal at 447 nm. The change in FRET signal is plotted against the test compound concentration and fit to a 3-parameter logistical equation.

SMILES | Emax [1] [%] | EC50 [1] [nM] | EC50 [2] [nM] | Emax [2] [%]
O=C(O)c1cc(OC2CC2)c2nc(N3C[C@@H]4C[C@H]3C[C@H]4OCc3c(-c4c(Cl)cccc4Cl)nnn3C3CC3)sc2c1 [Compound I-64, 4-cyclopropoxy-2-((1S,4S,5R)-5-((1-cyclopropyl-4-(2,6-dichlorophenyl)-1H-1,2,3-triazol-5-yl)methoxy)-2-azabicyclo[2.2.1]heptan-2-yl)benzo[d]thiazole-6-carboxylic acid] | 172 | 5.01 | 10 | 113
O=C(O)c1cc(C2CCOCC2)c2nc(N3C[C@@H]4C[C@H]3C[C@H]4OCc3c(-c4c(Cl)cccc4Cl)nnn3C3CC3)sc2c1 [Compound I-67, 2-((1S,4S,5R)-5-((1-cyclopropyl-4-(2,6-dichlorophenyl)-1H-1,2,3-triazol-5-yl)methoxy)-2-azabicyclo[2.2.1]heptan-2-yl)-4-(tetrahydro-2H-pyran-4-yl)benzo[d]thiazole-6-carboxylic acid] | 148 | 20 | 10 | 111
O=C(O)c1cc(C2CCC2)c2nc(N3C[C@@H]4C[C@H]3C[C@H]4OCc3c(-c4c(Cl)cccc4Cl)nnn3C3CC3)sc2c1 [Compound I-68, 4-cyclobutyl-2-[(1S,4S,5R)-5-{[1-cyclopropyl-4-(2,6-dichlorophenyl)-1H-1,2,3-triazol-5-yl]methoxy}-2-azabicyclo[2.2.1]heptan-2-yl]-1,3-benzothiazole-6-carboxylic acid] | 178 | 3.98 | 1.58 | 106
O=C(O)c1cc(C2CCCC2)c2nc(N3C[C@@H]4C[C@H]3C[C@H]4OCc3c(-c4c(Cl)cccc4Cl)nnn3C3CC3)sc2c1 [Compound I-69, 4-cyclopentyl-2-[(1S,4S,5R)-5-{[1-cyclopropyl-4-(2,6-dichlorophenyl)-1H-1,2,3-triazol-5-yl]methoxy}-2-azabicyclo[2.2.1]heptan-2-yl]-1,3-benzothiazole-6-carboxylic acid] | 168 | 6.31 | 2.51 | 111
O=C(O)c1ccc(N2C[C@@H]3C[C@H]2C[C@H]3OCc2c(-c3c(Cl)cccc3Cl)nnn2C2CC2)cc1 [Compound I-70, 4-[(1S,4S,5R)-5-{[1-cyclopropyl-4-(2,6-dichlorophenyl)-1H-1,2,3-triazol-5-yl]methoxy}-2-azabicyclo[2.2.1]heptan-2-yl]benzoic acid] | 155 | 63.1 | 39.8 | 106
